Like-named read-outs stand apart in the source and are kept apart here. No end group written: not given here. Where only a bound is given, the exact number is not on record here.

In assay [1] the test system is splenocytes from HLA-A*1101 transgenic mice. As to the kind of experiment: IFN-γ ELISpot with splenocytes of immunized HLA-A*1101 transgenic mice. Conditions: for IFN-γ production by splenocytes of lipopeptide-immunized mice: HLA-A*1101 mice immunized twice at three week intervals with lipopeptide in PBS, stimulated with peptides. It counts as in vivo.
Protocol: As controls, mice were injected with PBS. Mice were vaccinated twice at 3-week intervals.
Murine splenocytes: Mice were euthanized 7 to 14 days after immunization. Spleens were harvested, pressed through a 70 μm screen to form a single-cell suspension, and depleted of erythrocytes with AKC lysis buffer (160 mM NH4Cl, 10 mM KHCO3, 100 μM EDTA).
5×10^5 splenocytes were plated per well.
Both murine and human cells were plated in at least 3 replicate wells for each condition. Results were expressed as number of spot forming cells (SFCs) per 10^6 PBMCs or per 10^6 murine splenocytes.
All mouse experiments were repeated at least twice, with 4-5 mice for each group.
The subject of a further assay is HLA-A03 supertype. The assay can be described thus: MHC-peptide binding assay, number of supertype alleles bound. Also noted: species or system human. Particulars: of six HLA-A03 supertype alleles tested. From the text:
(§1) Assays were as described in Sidney, J., et al. Immunome Res 4, 2 (2008).

For the next assay, the target named is HLA-A*3001 (Homo sapiens, UniProt P04439, D140H/D185E/E176W/F33S/G80R/H175R/K168Q/R138E/R41S). As to the kind of experiment: MHC-peptide binding assay. Particulars: MHC binding affinity; IC50 approximates Kd; unit inferred.
Source text: as §1

The target in the next assay is HLA-A*0301 (Homo sapiens, UniProt P04439). As to the kind of experiment: MHC-peptide binding assay. Conditions: MHC binding affinity; IC50 approximates Kd; unit inferred.
Source text: as §1

Another assay has as its target HLA-A*3301 (Homo sapiens, UniProt P04439, A270S/D185E/E176V/E277Q/E87N/F33T/G231S/H175R/I121M/I218V/I322F/K168Q/K210R/L300P/L318F/M331R/P217A/Q86R/Q94H/R138Q/T323A/T345S/T97I/V358M/Y195H). The assay can be described thus: MHC-peptide binding assay. Conditions: MHC binding affinity; IC50 approximates Kd; unit inferred.
Source text: as §1

Another assay addresses HLA-A*3101 (Homo sapiens, UniProt P04439, A270S/D185E/E176V/E277Q/F33T/G231S/G80R/H175R/I121M/I218V/I322F/K168Q/L300P/L318F/M331R/P217A/Q94H/R138Q/T323A/T345S/T97I/V358M). As to the kind of experiment: MHC-peptide binding assay. Particulars: MHC binding affinity; IC50 approximates Kd; unit inferred.
Source text: as §1

The next assay addresses HLA-A*6801 (Homo sapiens, UniProt P04439, A269V/D185E/E176V/E277Q/E87N/F33Y/G231S/I121M/I166T/I218V/L180W/L300P/L318F/N151K/P208A/P217A/Q86R/R169H/T345S). The assay can be described thus: MHC-peptide binding assay. Particulars: MHC binding affinity; IC50 approximates Kd; unit inferred.
Source text: as §1

Another assay concerns the target HLA-A*1101 (Homo sapiens, UniProt P04439, A114D/D185E/E176A/F33Y/L180Q/S129P/T187R). The assay can be described thus: MHC-peptide binding assay. Particulars: unit inferred.
The next assay deals with HLA-A*0201 (Homo sapiens, UniProt P04439, D140Y/D185E/D98H/E176V/E277Q/G131W/G231S/I119V/I121R/I166T/I218V/L300P/L318F/N151K/N90K/P208A/P217A/Q86G/Q94H/R138H/R169H/T345S). The assay can be described thus: MHC-peptide binding assay (inhibition of binding of radiolabeled standard peptide). Particulars: for IC50: MHC binding assay, measured IC50 approximates Kd, no unit in table, text b40 speaks of nM, read-out: Affinity (c) HLA-A*0201.

The test system of assay [2] is Splenic T cells from HLA-A*0201 mice. As to the kind of experiment: IFN-γ ELISpot with splenocytes of immunized HLA-A*0201 transgenic mice. It counts as in vivo. Conditions: for IFN-γ production from T cells of immunized mice: HLA-A*0201 mice immunized with pooled peptides plus PADRE; for IFN-γ production in vitro by T cells from immunized mice: HLA-A*0201 mice immunized with pooled peptides alone, stimulated with the individual peptide.
Protocol: Eleven to fourteen days post immuniztion, spleen cells were isolated and exposed to each individual peptide.
5×10^5 splenocytes were plated per well. All antibodies and reagents used for ELISpot assays were obtained from Mabtech (Cincinnati, Ohio). Cells were plated in at least 3 replicate wells for each condition. Results were expressed as number of spot forming cells (SFCs) per 10^6 PBMCs or per 10^6 murine splenocytes.
Mice were boosted once at a 2-week interval.
Three to five mice from each group were euthanized 7 to 14 days after the last immunization. Spleens were harvested, pressed through a 70 μm screen to form a single-cell suspension, and depleted of erythrocytes with ASK lysis buffer (160 mM NH4Cl, 10 mM KHCO3, 100 μM EDTA).
Each ELISpot experiment was replicated a minimum of twice. P values of ≦0.05 were considered significant.

In a further assay the target is HLA-A*0203 (Homo sapiens, UniProt P04439, A173T/D140Y/D185E/D98H/E277Q/G131W/G231S/I119V/I121R/I166T/I218V/L180W/L300P/L318F/N151K/N90K/P208A/P217A/Q86G/Q94H/R138H/R169H/T345S). As to the kind of experiment: MHC-peptide binding assay.
A further assay deals with HLA-A*0202 (Homo sapiens, UniProt P04439, D140Y/D185E/D98H/E176V/E277Q/G131W/G231S/I119L/I121R/I166T/I218V/L180W/L300P/L318F/N151K/N90K/P208A/P217A/Q67R/Q86G/Q94H/R138H/R169H/T345S). The assay can be described thus: biochemical.
Assay [3] concerns splenocytes from HLA-B*0702 transgenic mice. Particulars: HF10 administered as lipopeptide with PADRE or with MLA, earlier work; cited from earlier work.
[4] abbreviates: Table 3, MHC binding assay, read-out: Affinity^b HLA-A*1101.

Protocol for HLA-A*0202: (§2) Briefly, 1-10 nM of radiolabeled peptides were co-incubated with 1 M-1 nM purified MHC and 1-3 human β2-microglobulin. After 2 days, binding of radiolabeled peptide to corresponding MHC Class I molecule was determined by capturing MHC-peptide complexes on Greiner GREINER® Lumitrac 600 microplates coated with W6/32 antibody and measuring bound counts per minutes using a Topcount microscintillation counter. […] Under conditions used, where [radiolabeled probe]<[MHC] and IC50≧[MHC], measured IC50 values are reasonable approximations of true Kd values.
Protocol for HLA-A*0203: as §2

On to `CC(C)C[C@H](NC(=O)[C@H](CC(C)C)NC(=O)[C@H](CC(=O)O)NC(=O)[C@H](CCCCN)NC(=O)[C@H](Cc1ccccc1)NC(=O)[C@H](CO)NC(=O)[C@@H](N)CCCNC(=N)N)C(=O)N[C@@H](CCCCN)C(=O)N[C@@H](CCCCN)C(=O)O`, for which the “IFN-γ production on stimulation of spleen cells with the peptide” value in assay [1] (HLA-A*1101 mice immunized with a mixture of peptides and adjuvants) is listed as “not present”.

Turning to AVVSLLRLLK, the “SUPERTYPE ALLELES BOUND” value in the assay on HLA-A03 supertype was 4. In addition, the IC50 worked out at 8.1 nM at HLA-A*3001; 17 nM at HLA-A*0301; 1100 nM on HLA-A*3301; 1300 nM on HLA-A*3101; 94 nM at HLA-A*6801; 34 nM on HLA-A*1101 (setting [4]).

For the molecule FLLGLLVHV [SAG3375-383], the IC50 on HLA-A*0201 was 6.4 nM. Moreover, the “IFN-γ production from T cells of immunized mice” value (from here on “IFN-γ production from T cells”) in assay [2] is reported as “significant IFN-γ production”.

What is called Kd is the free concentration of one partner at which half of the binding sites on the other are occupied at equilibrium, for simple one-to-one binding. Low readings indicate higher affinity, high ones lower affinity. FLSLSLLVI [SAG2C38-46] displayed a Kd at HLA-A*0203 of 50 to 500 nM. The Kd at HLA-A*0202 lay in the range of 50 to 500 nM. Further, on HLA-A*0201, the Kd was over 50 nM and the IC50 was 736 nM. Besides, in [2], the “IFN-γ production in vitro by T cells from immunized mice” value was “significant IFN-γ production” and the “IFN-γ production from T cells” value was “significant IFN-γ production”.

For the molecule FLTDYIPGA [SAG3136-144], the IC50 on HLA-A*0201 turned out to be 0.7 nM.

Consider FMIAFISCFA [SAG2D180-189], for which the IC50 at HLA-A*0201 was 32 nM. In addition, in assay [2], the “IFN-γ production in vitro by T cells from immunized mice” value is on record as “significant IFN-γ production” and the “IFN-γ production from T cells” value was “significant IFN-γ production”.

With FMIVSISLV [SAG2X351-359], at HLA-A*0201, the IC50 is 16 nM. Further, the “IFN-γ production from T cells” value in [2] is “significant IFN-γ production”.

For the molecule FVIFACNFV [SAG2X44-52], the IC50 on HLA-A*0201 was 34 nM. In addition, the “IFN-γ production from T cells” value in assay [2] is “significant IFN-γ production”.

On to GLAAAVVAV [SPA82-90], for which, at HLA-A*0201, the IC50 turned out to be 9.6 nM.

For “HPGSVNEFDF (listed as Toxoplasma gondii) [HF10]”, in [3], the “immunogenic in HLA-B07 transgenic mice” value was “not immunogenic”.

As to ITMGSLFFV [SPA12-20], at HLA-A*0201, the IC50 is 0.16 nM.

Turning to “LpAM9: lipopeptide: palmitic acid-bearing lysine, PADRE, then AMLTAFFLR (GRA6164-172)”, the “IFN-γ production by splenocytes of lipopeptide-immunized mice” value in [1] is listed as “higher IFN-γ production than LpRS9”.

On to “LpKS9: lipopeptide: palmitic acid-bearing lysine, PADRE, then KSFKDILPK (SAG1224-232)”, for which the “IFN-γ production by splenocytes of lipopeptide-immunized mice” value in [1] was “higher IFN-γ production than LpRS9”.

For SSAYVFSVK, the “SUPERTYPE ALLELES BOUND” value in the assay on HLA-A03 supertype is recorded as 5. For the same molecule, the IC50 at HLA-A*3001 is 1830 nM; at HLA-A*0301, 12 nM; on HLA-A*3301, 181 nM; on HLA-A*3101, 97 nM; at HLA-A*6801 it was 2.1 nM; at HLA-A*1101 (setting [4]), 10 nM.

Regarding STFWPCLLR, the “SUPERTYPE ALLELES BOUND” value in the assay on HLA-A03 supertype is given as 5. Further, the IC50 at HLA-A*3001 was found to be 1270 nM; at HLA-A*0301, 22 nM; at HLA-A*3301 it was 3.4 nM; at HLA-A*3101 it was 1.2 nM; at HLA-A*6801 it was 0.97 nM; on HLA-A*1101 (MHC binding affinity, Table 2b, IC50 approximates Kd, read-out: HLA-A*1101) it was 10 nM.
